Experimental data: patent US11045542B2, “Method of reducing reactogenicity induced by administration of vaccine or immunogenic composition” (GLAXOSMITHKLINE BIOLOGICALS, SA, priority 2015, dated 2021)

Tests used:
Format in all cases: in vivo, Mice
[1] = tested on: local immune cells at the injection site (muscle); assay: Effect of RvE1 on the local immune cells profile induced by adjuvants injection (flow cytometry of muscle cells); settings: muscles at 24 h
Method: Mice (n=6/gr) were injected intramuscularly with PBS, AS03 adjuvant (oil-in-water emulsion) or AS01B adjuvant (MPL+QS21 in liposomes). 1 h and 6 h later, synthetic RvE1 (0.2 μg/dose) or PBS was administered also intramuscularly. Muscles were collected at 24 h following adjuvant/PBS administration and local immune cells were extracted. The cells were stained with the following antibodies: Lytic, SiglecF, CD90.2, Ly6G, CD11b, CD11c, HLA DR, CD45 and CD19 and analysed by flow cytometry. The cell recruitment is expressed in number of cells per muscle. The plotted area represents the mean obtained for a specific subpopulation. A 2-way ANOVA was performed to compare the different groups. *: p<0.05. The chemical structure of the synthetic RvE1 used in the present experiment is identical to the chemical structure of RvE1 disclosed in Buckley et al. (“Proresolving Lipid Mediators and Mechanisms in the Resolution of Acute Inflammation”, 2014, Immunity 40: 315-327).

[2] = tested on: cytokines (TNFα, IL-6, IL1b and IFNγ) and chemokine (G-CSF, MCP-1, KC and MIP-1a) levels in muscle; assay: Effect of RvE1 on the local cytokine profile induced by adjuvants injection (CBA on muscle homogenates)
Method: Mice (n=6/gr) were injected intramuscularly with PBS, adjuvant AS03 or adjuvant AS01B. 1 h and 6 h later, the same synthetic RvE1 as the one used in Example 1 (0.2 μg/dose), or PBS was administered also intramuscularly. Muscles were collected at 4 h (A) and 24 h (B) following adjuvant or PBS administration and frozen at −70° C. Muscles were thawed and homogenized and cytokines (TNFα, IL-6, IL1b and IFNγ) and chemokine (G-CSF, MCP-1, KC and MIP-1a) levels in the cleared homogenates were measured by CBA (Becton Dickinson). The cytokine/chemokine concentrations are expressed in pg/mL. The plotted area represents the mean obtained for a specific cytokine/chemokine. A 2-way ANOVA was performed to compare the different groups. *: p<0.05 (See FIG. 3).

[3] = tested on: local immune cells at the injection site (muscle); assay: Effect of MaR1 on the local immune cells profile induced by adjuvant injection (flow cytometry of muscle cells); settings: MaR1 5 ng/dose intramuscularly 1 h prior to AS01B
Method: Mice (n=6/gr) were injected intramuscularly with synthetic 7-Maresin-1 (MaR1) (5 ng/dose) or PBS as a control. 1 h later, mice received intramuscularly adjuvant AS01B or PBS. Muscles were collected at 4 h and 24 h following 7-Maresin-1/PBS administration and local immune cells were extracted. The cells were stained with the following antibodies: Lytic, SiglecF, CD90.2, Ly6G, CD11b, CD11c, HLA DR, CD45 and CD19 and analysed by flow cytometry. The cell recruitment is expressed in number of cells per muscle. The plotted area represents the mean obtained for a specific subpopulation. A 2-way ANOVA was performed to compare the different groups. *: p<0.05. The chemical structure of the synthetic MaR1 used in the present experiment is identical to the chemical structure of MaR1 disclosed in Buckley et al. (“Proresolving Lipid Mediators and Mechanisms in the Resolution of Acute Inflammation”, 2014, Immunity 40: 315-327).

[4] = tested on: cytokines (TNFα, IL-6, IL1b and INFγ) and chemokine (G-CSF, MCP-1, KC and MIP-1a) levels in muscle; assay: Effect of MaR1 on the local cytokine profile induced by adjuvant injection (CBA on muscle homogenates); settings: MaR1 5 ng/dose intramuscularly 1 h prior to AS01B; 4 h post-injection of the MaR1
Method: Mice (n=6/gr) were injected intramuscularly with the same synthetic MaR1 as the one used in Example 2 (5 ng/dose), or PBS as a control. 1 h later, mice received intramuscularly adjuvant AS01B or PBS. Muscles were collected at 4 h and 24 h following MaR1/PBS administration and frozen at −70° C. Muscles were thawed and homogenized and cytokines (TNFα, IL-6, IL1b and INFγ) and chemokine (G-CSF, MCP-1, KC and MIP-1a) levels in the cleared homogenates were measured by CBA (Becton Dickinson). The cytokine/chemokine concentrations are expressed in pg/mL. The plotted area represents the mean obtained for a specific cytokine/chemokine. A 2-way ANOVA was performed to compare the different groups. *: p<0.05 (See FIG. 4).

[5] = tested on: CD4+ or CD8+ T cells expressing at least 2 cytokines; assay: Effect of MaR1 on specific T cell responses induced by vaccine injection (intracellular cytokine staining of spleen cells); settings: MaR1 5 ng/dose intramuscularly 1 h prior to OVA and HBS antigens in AS01B; vs antigens and adjuvant alone
Method: Mice (n=30/gr) were injected intramuscularly with the same synthetic MaR1 as the one used in Example 2 (5 ng/dose) or PBS as a control. 1 h later, mice were vaccinated with OVA (Ovalbumin) and HBS (Hepatitis B Surface) antigens re-suspended in adjuvant AS01B or in PBS. This vaccination scheme was repeated 15 days later. Spleens were removed 7 days after the second immunization, and immune cells were extracted and stimulated overnight with OVA (A) or HBS (B) peptides. After surface staining with anti-CD4 and anti-CD8 antibodies, cells were labeled intra-cellularly with anti-IL-2, anti-IFN-γ and anti-TNF-α and analyzed by flow cytometry. Results are expressed as percentages of CD4+ or CD8+ T cells expressing at least 2 cytokines among the ones tested. Each point represents an individual value, the bar represents the mean+/−SD (see FIG. 5).

[6] = tested on: Anti-OVA or anti-HBs antibodies; assay: Effect of MaR1 on specific antibody responses induced by vaccine injection (ELISA on sera); settings: MaR1 5 ng/dose intramuscularly 1 h prior to OVA and HBS antigens in AS01B; vs antigens and adjuvant alone
Method: Mice (n=30/gr) were injected intramuscularly with the same synthetic MaR1 as the one used in Example 2 (5 ng/dose), or PBS as a control. 1 h later, mice were vaccinated with OVA and HBS antigens re-suspended in adjuvant AS01B or in PBS. This vaccination scheme was repeated 15 days later. Sera were taken 7 days after the second immunization. Anti-OVA (A) or anti-HBs (B) antibodies were detected by ELISA. Antibody titers are expressed in ng/mL. Each point represents an individual value; the bar represents the mean+/−SD. (See FIG. 6).

| SMILES | recruitment of immune cells at the injection site (number of cells per muscle) ([1]; RvE1 0.2 μg/dose intramuscularly 1 h and 6 h after AS01B, vs AS01B alone) | recruitment of immune cells at the injection site (number of cells per muscle) ([1]; RvE1 0.2 μg/dose intramuscularly 1 h and 6 h after AS03, vs AS03 alone) | pattern of immune cells at the injection site ([1]; RvE1 on its own with PBS alone, compared with PBS alone) | modulation of local cytokines/chemokines concentration ([2]; RvE1 0.2 μg/dose intramuscularly after AS01B, 4 h post-injection of the adjuvant) | modulation of local cytokines/chemokines concentration ([2]; RvE1 0.2 μg/dose intramuscularly after AS01B, 24 h post-injection of the adjuvant) | modulation of local cytokines/chemokines concentration ([2]; RvE1 0.2 μg/dose intramuscularly after AS03, 4 h post-injection of the adjuvant) | modulation of local cytokines/chemokines concentration ([2]; RvE1 0.2 μg/dose intramuscularly after AS03, 24 h post-injection of the adjuvant) | pattern of immune cells at the injection site ([3]; 4 h post-injection) | pattern of immune cells at the injection site ([3]; 24 h post-injection) | modulation of local cytokines/chemokines profile [4] | CD4+ T cell response induced by adjuvanted vaccine [5] | CD8+ T cell response induced by adjuvanted vaccine [5] | anti-HBS antibody response induced by adjuvanted vaccine [6] | anti-OVA antibody response induced by adjuvanted vaccine [6] |
| --- | --- | --- | --- | --- | --- | --- | --- | --- | --- | --- | --- | --- | --- | --- |
| CC[C@@H](O)/C=C/C=C\C[C@@H](O)/C=C/C=C/C=C\[C@@H](O)CCCC(=O)O [RvE1, Resolvin E1] | The same conclusion holds true | significantly reduced recruitment of all the immune cell types tested | only a minimal effect on the pattern of immune cells | no significant modulating effect was observed | no significant modulating effect was observed | a significant modulating effect was observed | no significant effect was observed | – | – | – | – | – | – | – |
| CC/C=C\C/C=C\C[C@H](O)\C=C/C=C/C=C/[C@H](O)C/C=C\CCC(=O)O [MaR1, 7-Maresin-1] | – | – | – | – | – | – | – | may be too early to detect an effect | increase of B cells and T cells recruitment on site | significant transient modulating effect | did not negatively impact the T cell immune response | did not negatively impact the T cell immune response | did not negatively impact the antibody immune response | did not negatively impact the antibody immune response |
